We go through 5 molecules from ChEMBL document CHEMBL3763138, “Synthesis and bioactivity of novel triazole incorporated benzothiazinone derivatives as antitubercular and antioxidant agent” (Bioorg Med Chem Lett, 2016).

For data set [1], the system named is Mycobacterium tuberculosis. In words: Antitubercular activity against Mycobacterium tuberculosis H37Ra ATCC 25177 at 30 ug/ml by XTT Reduction Menadione Assay. It is filed as functional. (Tetrazolium assays rely on reduction of a dye to a coloured formazan, in cell work by metabolically active cells.)
Data set [2] concerns Mycobacterium tuberculosis. Description: Antitubercular activity against Mycobacterium tuberculosis H37Ra ATCC 25177 at 10 ug/ml by XTT Reduction Menadione Assay. It counts as functional.
For data set [3], the system named is Mycobacterium tuberculosis. Description: Antitubercular activity against Mycobacterium tuberculosis H37Ra ATCC 25177 at 3 ug/ml by XTT Reduction Menadione Assay. It is filed as functional.
The nature of data set [4]: Antioxidant activity assessed as DPPH radical scavenging activity by spectrophotometric assay. It counts as physicochemical.
For data set [5], the system named is Mycobacterium tuberculosis. Description: Antitubercular activity against Mycobacterium tuberculosis H37Ra ATCC 25177 by XTT Reduction Menadione Assay. It is filed as functional, organism-based.
Data set [6] concerns A549. Description: Antiproliferative activity against human A549 cells at 30 ug/ml after 48 hrs by MTT assay. It counts as cell-based. Conditions: a549, 48 h.
Data set [7] deals with A549. In words: Antiproliferative activity against human A549 cells at 10 ug/ml after 48 hrs by MTT assay. It is filed as cell-based. Conditions: a549, 48 h.
Data set [8] has as its system A549. In words: Antiproliferative activity against human A549 cells at 3 ug/ml after 48 hrs by MTT assay. It is filed as cell-based. As to conditions: a549, 48 h.
The subject of data set [9] is A-431. Description: Antiproliferative activity against human A431 cells at 30 ug/ml after 48 hrs by MTT assay. As to conditions: a-431, 48 h. It counts as cell-based.
Data set [10] deals with A-431. Description: Antiproliferative activity against human A431 cells at 10 ug/ml after 48 hrs by MTT assay. As to conditions: a-431, 48 h. It is filed as cell-based.
The subject of data set [11] is A-431. Description: Antiproliferative activity against human A431 cells at 3 ug/ml after 48 hrs by MTT assay. It is filed as cell-based. Conditions: a-431, 48 h.
Data set [12] relates to HeLa. In words: Antiproliferative activity against human HeLa cells at 30 ug/ml after 72 hrs by MTT assay. It is filed as cell-based.
Data set [13] relates to HeLa. Description: Antiproliferative activity against human HeLa cells at 10 ug/ml after 72 hrs by MTT assay. It is filed as cell-based.
Data set [14] has as its system HeLa. Description: Antiproliferative activity against human HeLa cells at 3 ug/ml after 72 hrs by MTT assay. It is filed as cell-based.
The nature of data set [15]: (§1) Cytotoxicity against human A549 cells assessed as growth inhibition after 48 hrs by MTT assay. It is filed as cell-based. Conditions: A549 cells.
Data set [16] deals with A549. Described as §1. It is filed as cell-based. As to conditions: a549, 48 h.
A short description of data set [17]: (§2) Cytotoxicity against human HeLa cells assessed as growth inhibition after 72 hrs by MTT assay. It counts as cell-based. Conditions: HeLa cells.
Data set [18] has as its system HeLa. Described as §2. It counts as cell-based. As to conditions: hela, 72 h.
The nature of data set [19]: Cytotoxicity against human A431 cells assessed as growth inhibition after 48 hrs by MTT assay. It counts as cell-based, A-431.
Data set [20] can be described thus: Selectivity index, ratio of GI50 for human HeLa cells to MIC for Mycobacterium tuberculosis H37Ra ATCC 25177. It counts as toxicity, cell-based. As to conditions: pooled result: one value given for 3 cell lines, strains, targets or settings, read-out: Selectivity Index.
Data set [21] in a line: Selectivity index, ratio of GI50 for human HeLa cells to MIC for Mycobacterium bovis BCG ATCC 35743. It counts as toxicity, cell-based. Conditions: pooled result: one value given for 3 cell lines, strains, targets or settings, read-out: Selectivity Index.

In brackets after ≈: the same amount, converted by molar mass.

In turn, `O=C1CSc2ccccc2N1Cc1cn(Cc2ccc([N+](=O)[O-])cc2)nn1` had an inhibition at 30 µg/mL in data set [1] of 70.6%. The same molecule yielded an inhibition at 10 µg/mL in data set [2] of 52.9%. Besides, in data set [3], the inhibition at 3 µg/mL is 9.8%. For the same molecule, the IC50 was found to be 27.4 µg/mL (≈ 71.8 µM) in data set [4] and 9.2 µg/mL (≈ 24.1 µM) in data set [5]. For the same molecule, the MIC (in data set [5]; in the data set on A549 [16]) was more than 30 µg/mL throughout. In addition, the Activity in the data set with A549 [6] came to 8.43%; with A549 [7], 17.56%; in the data set on A549 [8], 0%; in the data set with A-431 [9], 44.7%; in the data set on A-431 [10], 12.9%; with A-431 [11], 10.8%. In addition, the figures for the Activity in the data set on HeLa [12], in the data set on HeLa [13] and in the data set with HeLa [14] were 55.5%, 53.2% and 36.5%, respectively. Further, the GI50 at 48 h in data set [15] and in [19] was more than 30 µg/mL in each case. Moreover, the GI50 at 72 h in data set [17] is more than 30 µg/mL. In addition, in the data set on HeLa [18], the GI50 is more than 30 µg/mL. The values for the selectivity ratio in data set [20] and in data set [21] were 1 and 1.02, respectively.

For the molecule `O=C1CSc2ccccc2N1Cc1cn(Cc2ccc(F)cc2)nn1`, 30 µg/mL produced 91.3% inhibition in [1]. In data set [2], this molecule yielded an inhibition at 10 µg/mL of 77.5%. This molecule also gave an inhibition at 3 µg/mL in data set [3] of 73.8%. Moreover, the IC50 is 14.15 µg/mL (≈ 39.9 µM) in [4] and 1.24 µg/mL (≈ 3.5 µM) in [5]. The MIC was 29.2 µg/mL (≈ 82.5 µM) in data set [5] and more than 30 µg/mL in the data set on A549 [16]. Moreover, the Activity came out at 30.9% with A549 [6]; 4.1% in the data set on A549 [7]; 12.32% in the data set with A549 [8]; 44.5% in the data set with A-431 [9]; 31.1% in the data set with A-431 [10]; 17.3% in the data set on A-431 [11]. Moreover, the values for the Activity in the data set with HeLa [12], in the data set on HeLa [13] and with HeLa [14] were 51.3%, 46.3% and 45.1%, respectively. Also, the GI50 at 48 h in [15] and in [19] was more than 30 µg/mL in each case. For the same molecule, the GI50 at 72 h in [17] was determined as 28.6 µg/mL (≈ 80.8 µM). Moreover, in the data set with HeLa [18], the GI50 was more than 30 µg/mL. In addition, the selectivity ratio came out at 1.02 in [20] and 1.09 in [21].

In [1], `O=C1CSc2ccccc2N1Cc1cn(Cc2cccc(Cl)c2)nn1` gave an inhibition at 30 µg/mL of 94.2%. Also, at 10 µg/mL the inhibition in [2] was 66.6%. The molecule further showed an inhibition at 3 µg/mL in [3] of 8.6%. Moreover, the IC50 in data set [4] is 45.63 µg/mL (≈ 123 µM); in data set [5], 8.03 µg/mL (≈ 21.7 µM). For the same molecule, the MIC is 27.3 µg/mL (≈ 73.7 µM) in [5] and more than 30 µg/mL with A549 [16]. In addition, the Activity is recorded as 19.04% with A549 [6]; 3.31% with A549 [7]; 6.38% with A549 [8]; 4.4% in the data set with A-431 [9]; -13.7% in the data set with A-431 [10]; -6.3% in the data set on A-431 [11]. The Activity with HeLa [12] came out at 45.7%; in the data set on HeLa [13] it was 43.4%; in the data set with HeLa [14], 52.3%. In addition, the GI50 at 48 h in [15] and in [19] was more than 30 µg/mL throughout. Besides, the GI50 at 72 h in [17] was more than 30 µg/mL. The GI50 in the data set on HeLa [18] is more than 30 µg/mL. Further, the selectivity ratio in data set [20] came out at 1.1; in [21], 1.05.

In data set [5], `NNC(=O)c1ccncc1` [ISONIAZID] had an IC50 of 0.0025 µg/mL (≈ 0.0182 µM) and an MIC of 0.075 µg/mL (≈ 0.547 µM). Besides, the selectivity ratio in [20] stood at 1330. Further, the selectivity ratio in [21] was 2220.

The molecule `CO[C@H]1/C=C/O[C@@]2(C)Oc3c(C)c(O)c4c(O)c(c(/C=N/N5CCN(C)CC5)c(O)c4c3C2=O)NC(=O)/C(C)=C\C=C\[C@H](C)[C@H](O)[C@@H](C)[C@@H](O)[C@@H](C)[C@H](OC(C)=O)[C@@H]1C` [RIFAMPIN] gave an MIC in data set [5] of 0.043 µg/mL (≈ 0.0523 µM). Besides, the values for the selectivity ratio in [20] and in data set [21] were 2330 and 2440, respectively.

Usually inhibition stands for the change of the read-out against control, counted positive when it falls. A high value points to a response far below the control. For orientation: IC50 means the concentration at which inhibition is half-maximal. The term GI50 denotes the concentration that inhibits growth by half.
